The text below walks through data of the NIST ThermoML archive (doi:10.1021/je1007923).

± gives the expanded uncertainty stated by the source.

The conditions of this series: 101.33 kPa, Liquid, Vibrating tube method.

With `Cc1ccccc1O` [2-methylphenol], the mass density (as a rule, mass per unit of volume) (308.15 K) turned out to be 1032.73 ± 0.28 kg/m3. In the case of `Cc1cccc(O)c1` [3-methylphenol], the mass density (293.15 K) is listed as 1033.85 ± 0.09 kg/m3. As for `Cc1ccc(O)cc1` [4-methylphenol], where the note is “313.15 K”, the mass density worked out at 1018.8 ± 0.08 kg/m3.

In the case of `CCCCCCC` [heptane], the mass density (298.15 K) came out at 679.43 ± 0.23 kg/m3.

For the compound `CCCCCCCC` [octane], the mass density (298.15 K) is on record as 698.49 ± 0.23 kg/m3. Regarding `Oc1ccccc1` [phenol], the mass density (313.15 K) came to 1058.3 ± 0.11 kg/m3.
